9 compounds from patent US10214542B2, “Modified macrocyclic compounds” (BAYER PHARMA AKTIENGESELLSCHAFT, priority 2015, dated 2019) can be followed below.

Experiment [1] deals with T1, CDK9/CycT1 (Homo sapiens, UniProt P50750).
T1 construct: Recombinant full-length His-tagged human CDK9 and CycT1; His; purchased Invitrogen PV4131; host or cells: insect cells
The experiment can be described thus: CDK9/CycT1 kinase assay (TR-FRET, Method 1a). The experiment is classed as biochemical. Particulars: 10 μM ATP; for IC50: Method 1a; for Selectivity CDK9 over CDK2: IC50 (CDK2)/IC50 (CDK9): Methods 1a and 2a. From the text:
1a. CDK9/CycT1 Kinase Assay:
CDK9/CycT1-inhibitory activity of compounds of the present invention was quantified employing the CDK9/CycT1 TR-FRET assay as described in the following paragraphs:
Recombinant full-length His-tagged human CDK9 and CycT1, expressed in insect cells and purified by Ni-NTA affinity chromatography, were purchased from Invitrogen (Cat. No PV4131). As substrate for the kinase reaction biotinylated peptide biotin-Ttds-YISPLKSPYKISEG (C-terminus in amid form) was used which can be purchased e.g. from the company JERINI Peptide Technologies (Berlin, Germany).
(§1) For the assay 50 nl of a 100 fold concentrated solution of the test compound in DMSO was pipetted into a black low volume 384 well microtiter plate (Greiner Bio-One, Frickenhausen, Germany), 2 μl of a solution of CDK9/CycT1 in aqueous assay buffer [50 mM Tris/HCl pH 8.0, 10 mM MgCl2, 1.0 mM dithiothreitol, 0.1 mM sodium ortho-vanadate, 0.01% (v/v) Nonidet-P40 (Sigma)] were added and the mixture was incubated for 15 min at 22° C. to allow pre-binding of the test compounds to the enzyme before the start of the kinase reaction. […] The concentration of CDK9/CycT1 was adjusted depending of the activity of the enzyme lot and was chosen appropriate to have the assay in the linear range, typical concentrations were in the range of 1 μg/mL. The reaction was stopped by the addition of 5 μl of a solution of TR-FRET detection reagents (0.2 μM streptavidine-XL665 [Cisbio Bioassays, Codolet, France] and 1 nM anti-RB(pSer807/pSer811)-antibody from BD Pharmingen [#558389] and 1.2 nM LANCE EU-W1024 labeled anti-mouse IgG antibody [Perkin-Elmer, product no. AD0077]) in an aqueous EDTA-solution (100 mM EDTA, 0.2% (w/v) bovine serum albumin in 100 mM HEPES pH 7.5).
(§2) The resulting mixture was incubated 1 h at 22° C. to allow the formation of complex between the phosphorylated biotinylated peptide and the detection reagents. Subsequently the amount of phosphorylated substrate was evaluated by measurement of the resonance energy transfer from the Eu-chelate to the streptavidine-XL. Therefore, the fluorescence emissions at 620 nm and 665 nm after excitation at 350 nm was measured in a HTRF reader, e.g. a Rubystar (BMG Labtechnologies, Offenburg, Germany) or a Viewlux (Perkin-Elmer). The ratio of the emissions at 665 nm and at […] was taken as the measure for the amount of phosphorylated substrate. The data were normalised (enzyme reaction without inhibitor=0% inhibition, all other assay components but no enzym=100% inhibition).
For orientation: In TR-FRET formats the signal depends on donor and acceptor labels being close together.

Experiment [2] has as its target T1, CDK9/CycT1. As to the kind of experiment: CDK9/CycT1 high ATP kinase assay (TR-FRET, Method 1b). The experiment is classed as biochemical. Particulars: 2 mM ATP; for IC50: Method 1b; for Selectivity high ATP CDK9 over high ATP CDK2: IC50 (high ATP CDK2)/IC50 (high ATP CDK9): Methods 1b and 2b. As for the experimental part: 1b. CDK9/CycT1 High ATP Kinase Assay
CDK9/CycT1-inhibitory activity of compounds of the present invention at a high ATP concentration after preincubation of enzyme and test compounds was quantified employing the CDK9/CycT1 TR-FRET assay as described in the following paragraphs.
Recombinant full-length His-tagged human CDK9 and CycT1, expressed in insect cells and purified by Ni-NTA affinity chromatography, were purchase from Invitrogen (Cat. No PV4131). As substrate for the kinase reaction biotinylated peptide biotin-Ttds-YISPLKSPYKISEG (C-terminus in amid form) was used which can be purchased e.g. from the company JERINI peptide technologies (Berlin, Germany).
as §1, with “of 0.5” for “of 1”
as §2

Another experiment relates to MOLM-13 cells. The experiment can be described thus: Proliferation assay, Cell Titre-Glo viability (Method 3). The experiment is classed as cell-based. As to conditions: Homo sapiens; MOLM-13, 72-hour exposure; read-out: Inhibition of MOLM-13 cell proliferation IC50. As for the experimental part:
(§3) A2780 human ovarian carcinoma cells (ECACC #93112519) and non-adherent MOLM-13 human acute myeloid leukemia cells (DSMZ ACC 554) were seeded at a density of 3,000 cell/well (A2780) or 5,000 cells/well (MOLM-13) in a 96-well multititer plate in 150 μL of growth medium supplemented 10% fetal calf serum. After 24 hours, cell viability of one plate (zero-point plate) was determined with the Cell Titre-Glo Luminescent Cell Viability Assay (Promega), while the medium of the other plates was supplemented with the test substances in various concentrations (0 μM, as well as in the range of 0.0001-10 μM; the final concentration of the solvent dimethyl sulfoxide was adjusted to 0.1%) using a Hewlett-Packard HP D300 Digital Dispenser. Cell viability was assessed after 72-hour exposure with the Cell
(§4) Titre-Glo Luminescent Cell Viability Assay (Promega). IC50 values (inhibitory concentration at 50% of maximal effect) were determined by means of a 4 parameter fit on measurement data which were normalized to vehicle (DMSO) treated cells (=100%) and measurement readings taken immediately before compound exposure (=0%).

For a further experiment, the system named is A2780 cells. Described as above. The experiment is classed as cell-based, human. Particulars: Homo sapiens, A2780, 72 h, A2780, 72-hour exposure; read-out: Inhibition of A2780 cell proliferation IC50. As for the experimental part: as §3, §4

T1 sequence (P50750 whole entry): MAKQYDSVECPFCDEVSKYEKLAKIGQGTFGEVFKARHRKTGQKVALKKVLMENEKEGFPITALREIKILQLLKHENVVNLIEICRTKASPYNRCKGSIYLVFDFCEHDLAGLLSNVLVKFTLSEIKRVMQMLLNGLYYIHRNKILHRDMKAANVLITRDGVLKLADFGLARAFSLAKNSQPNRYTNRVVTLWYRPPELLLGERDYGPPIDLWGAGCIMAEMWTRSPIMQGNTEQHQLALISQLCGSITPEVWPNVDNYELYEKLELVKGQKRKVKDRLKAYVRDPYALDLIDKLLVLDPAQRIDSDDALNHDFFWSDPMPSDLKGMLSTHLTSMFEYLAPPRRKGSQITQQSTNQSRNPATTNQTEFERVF
T1 sequence (O60563 whole entry partner): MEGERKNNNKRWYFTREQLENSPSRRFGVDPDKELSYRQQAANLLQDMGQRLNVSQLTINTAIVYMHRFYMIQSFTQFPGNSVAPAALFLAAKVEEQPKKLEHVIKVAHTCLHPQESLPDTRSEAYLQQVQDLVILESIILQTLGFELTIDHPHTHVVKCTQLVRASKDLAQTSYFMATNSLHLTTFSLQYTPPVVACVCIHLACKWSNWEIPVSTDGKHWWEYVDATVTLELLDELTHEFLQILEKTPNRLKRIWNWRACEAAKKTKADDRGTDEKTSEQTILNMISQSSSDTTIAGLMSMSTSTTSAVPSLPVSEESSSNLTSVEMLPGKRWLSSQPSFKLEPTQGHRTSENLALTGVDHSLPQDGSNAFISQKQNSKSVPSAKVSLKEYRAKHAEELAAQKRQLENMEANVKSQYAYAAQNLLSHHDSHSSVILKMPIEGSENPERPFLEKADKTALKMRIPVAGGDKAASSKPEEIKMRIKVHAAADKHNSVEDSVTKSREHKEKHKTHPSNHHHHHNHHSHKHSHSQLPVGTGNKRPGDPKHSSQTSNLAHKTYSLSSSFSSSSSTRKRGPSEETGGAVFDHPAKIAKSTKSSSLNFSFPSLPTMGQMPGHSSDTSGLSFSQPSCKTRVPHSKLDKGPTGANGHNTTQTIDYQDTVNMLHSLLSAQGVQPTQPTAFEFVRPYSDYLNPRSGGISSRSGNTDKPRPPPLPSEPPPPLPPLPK

`CS(=N)(=O)Cc1cc2nc(c1)Nc1cc(c(F)cn1)-c1ccc(F)cc1OCCCN2` (racemic) [Example 8, (rac)-15,19-difluoro-8-[(S-methylsulfonimidoyl)methyl]-2,3,4,5-tetrahydro-11H-10,6-(azeno)-16,12-(metheno)-1,5,11,13-benzoxatriazacyclooctadecine]: the IC50 against CDK9/CycT1 [1] is 2.7 nM; at CDK9/CycT1 [2] it was 0.7 nM; in the experiment on MOLM-13 cells it was 2.2 nM; with A2780 cells it was 1.4 nM. The “Selectivity CDK9 over CDK2: IC50 (CDK2)/IC50 (CDK9)” value (shortened to “Selectivity CDK9 over CDK2: IC50”) on CDK9/CycT1 [1] is reported as 3.4. Further, the “Selectivity high ATP CDK9 over high ATP CDK2: IC50 (high ATP CDK2)/IC50 (high ATP CDK9)” value (“Selectivity high ATP CDK9” below) at CDK9/CycT1 [2] worked out at 41.4.
On to `CC(C)(C)OC(=O)N=S(C)(=O)Cc1cc2nc(c1)Nc1cc(c(F)cn1)-c1ccc(F)cc1OCCCCCN2` (racemic) [Example 9, (rac)-tert-butyl[{[17,21-difluoro-2,3,4,5,6,7-hexahydro-13H-12,8-(azeno)-14,18-(metheno)-1,7,13,15-benzoxatriazacycloicosin-10-yl]methyl}(methyl)oxido-λ^6-sulfanylidene]carbamate], for which the IC50 against CDK9/CycT1 [1] was 13 nM; against CDK9/CycT1 [2], 6.8 nM; in the experiment with MOLM-13 cells it was 19 nM; in the experiment on A2780 cells, 27 nM. Moreover, on CDK9/CycT1 [1], the “Selectivity CDK9 over CDK2: IC50” value amounted to 7.4. For the same compound, on CDK9/CycT1 [2], the “Selectivity high ATP CDK9” value is 37.2.
As for `CS(=N)(=O)Cc1cc2nc(c1)Nc1cc(c(F)cn1)-c1ccc(F)cc1OCCCCCN2` (racemic) [Example 10, (rac)-17,21-difluoro-10-[(S-methylsulfonimidoyl)methyl]-2,3,4,5,6,7-hexahydro-13H-12,8-(azeno)-14,18-(metheno)-1,7,13,15-benzoxatriazacycloicosine], the IC50 stood at 3.4 nM against CDK9/CycT1 [1], 1 nM at CDK9/CycT1 [2], 4.4 nM in the experiment on MOLM-13 cells and 5.2 nM with A2780 cells. Moreover, at CDK9/CycT1 [1], the “Selectivity CDK9 over CDK2: IC50” value was 8.2. At CDK9/CycT1 [2], the “Selectivity high ATP CDK9” value is 102.
Take `CN1CCCCOc2cc(F)ccc2-c2cc(ncc2F)Nc2cc(CS(C)(=N)=O)cc1n2` (racemic) [Example 11, (rac)-16,20-difluoro-6-methyl-9-[(S-methylsulfonimidoyl)methyl]-3,4,5,6-tetrahydro-2H-7,11-(azeno)-17,13-(metheno)-1,6,12,14-benzoxatriazacyclononadecine]: the IC50 was 5.1 nM at CDK9/CycT1 [1], 2.6 nM on CDK9/CycT1 [2], 8.2 nM in the experiment with MOLM-13 cells and 4.6 nM with A2780 cells. The “Selectivity CDK9 over CDK2: IC50” value on CDK9/CycT1 [1] stood at 6.7. Also, on CDK9/CycT1 [2], the “Selectivity high ATP CDK9” value turned out to be 31.
Consider `CC(C)(C)OC(=O)N=S(C)(=O)Cc1cc2cc(c1)OCCCNc1cc(F)ccc1-c1nc(ncc1F)N2` (racemic) [Example 13, (rac)-tert-butyl[{[15,19-difluoro-1,2,3,4-tetrahydro-16,12-(azeno)-6,10-(metheno)-5,1,11,13-benzoxatriazacyclooctadecin-8(11H)-yl]methyl}(methyl)oxido-λ^6-sulfanylidene]carbamate], for which the IC50 at CDK9/CycT1 [1] came out at 6.5 nM; on CDK9/CycT1 [2], 3 nM; with MOLM-13 cells it was 14 nM; in the experiment on A2780 cells, 19 nM. Further, the “Selectivity high ATP CDK9” value on CDK9/CycT1 [2] turned out to be 426.
Taken in the same sequence, the figures for `CS(=N)(=O)Cc1cc2cc(c1)OCCCNc1cc(F)ccc1-c1nc(ncc1F)N2` (racemic) [Example 14, rac-15,19-difluoro-8-[(S-methylsulfonimidoyl)methyl]-1,2,3,4-tetrahydro-16,12-(azeno)-6,10-(metheno)-5,1,11,13-benzoxatriazacyclooctadecine] were 3.2 nM, 1 nM, 3.1 nM, 4.7 nM and 94.
As to `CC(C)(C)OC(=O)N=S(C)(=O)Cc1cc2cc(c1)OCCCCNc1cc(F)ccc1-c1nc(ncc1F)N2` (racemic) [Example 15, (rac)-tert-butyl[{[16,20-difluoro-2,3,4,5-tetrahydro-1H,12H-13,17-(azeno)-11,7-(metheno)-6,1,12,14-benzoxatriazacyclononadecin-9-yl]methyl}(methyl)oxido-λ^6-sulfanylidene]carbamate], the IC50 at CDK9/CycT1 [1] came out at 8.9 nM; against CDK9/CycT1 [2] it was 4.7 nM; in the experiment on MOLM-13 cells, 18 nM; in the experiment with A2780 cells it was 31 nM. For the same compound, the “Selectivity CDK9 over CDK2: IC50” value on CDK9/CycT1 [1] was determined as 29.4. The “Selectivity high ATP CDK9” value on CDK9/CycT1 [2] is listed as 713.
As to `CS(=N)(=O)Cc1cc2cc(c1)OCCCCNc1cc(F)ccc1-c1nc(ncc1F)N2` (racemic) [Example 16, (rac)-16,20-difluoro-9-[(S-methylsulfonimidoyl)methyl]-2,3,4,5-tetrahydro-1H-17,13-(azeno)-7,11-(metheno)-6,1,12,14-benzoxatriazacyclononadecine], the IC50 on CDK9/CycT1 [1] was found to be 3.9 nM; against CDK9/CycT1 [2] it was 1.5 nM; in the experiment on MOLM-13 cells it was 4.1 nM; in the experiment on A2780 cells, 8.2 nM. Besides, the “Selectivity CDK9 over CDK2: IC50” value on CDK9/CycT1 [1] is 7.7. Further, the “Selectivity high ATP CDK9” value at CDK9/CycT1 [2] was 151.
In the case of `CN1CCCCNc2cc(F)ccc2-c2nc(ncc2F)Nc2cc(CS(C)(=N)=O)cc1c2.O=CO` (racemic) [Example 17, (rac)-16,20-difluoro-6-methyl-9-[(S-methylsulfonimidoyl)methyl]-1,2,3,4,5,6-hexahydro-12H-17,13-(azeno)-11,7-(metheno)-1,6,12,14-benzotetraazacyclononadecine; salt with formic acid], the IC50 is 4.2 nM against CDK9/CycT1 [1], 2.2 nM at CDK9/CycT1 [2], 13 nM with MOLM-13 cells and 6.5 nM with A2780 cells. Also, the “Selectivity CDK9 over CDK2: IC50” value on CDK9/CycT1 [1] came out at 17.6. The “Selectivity high ATP CDK9” value at CDK9/CycT1 [2] came to 283.
